These results are taken from patent EP4480493A1, “A RECOMBINANT HUMAN ALPHA-1 ANTITRYPSIN GLYCOPROTEIN FOR TREATING NON-VIRAL INFLAMMATORY DISEASES OF THE LUNG” (AATEC Medical GmbH, priority 2023, dated 2024).

Counter-ions that a name gives are not always drawn.

The target in assay [1] is T1, human neutrophil elastase (Homo sapiens, UniProt P08246).
T1 construct: purchased Merck Millipore 324681
T1 sequence (P08246 30-247 limits assumed): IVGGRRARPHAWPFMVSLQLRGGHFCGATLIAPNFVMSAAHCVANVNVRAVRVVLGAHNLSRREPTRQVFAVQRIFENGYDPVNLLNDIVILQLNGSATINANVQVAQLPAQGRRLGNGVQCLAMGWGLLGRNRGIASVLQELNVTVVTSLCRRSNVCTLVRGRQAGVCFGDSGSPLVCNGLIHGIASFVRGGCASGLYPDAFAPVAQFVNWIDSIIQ
The assay is described as follows: Neutrophil Elastase activity assay (fluorogenic AMC substrate). The format is biochemical. More on the design: key to Neutrophil Elastase IC50 / Neutrophil Elastase IC90: - = inactive.

Assay [2] addresses recombinant human TMPRSS2 (Homo sapiens, UniProt O15393). The assay is described as follows: TMPRSS2 activity assay (fluorogenic AMC substrate). The conditions noted are these: read-out: TMPRSS2 IC90.
Description: Fluorescence intensity was measured at an excitation wavelength of 380 nm and emission wavelength of 460 nm. […] Half maximal inhibition concentrations (IC50) were calculated using a non-linear regression model.
In a next step, 50 µl of 20 µM BOC-Gln-Ala-Arg-AMC protease substrate (Bachem #4017019) was added and incubated for 2 h at 37°C. Fluorescence intensity was measured after 2 h at an excitation wavelength of 380 nm and emission wavelength of 460 nm in a SynergyTM H1 microplate reader (BioTek) with Gen5 3.04 software.
Therefore, the ability of rhAAT to inhibit recombinant TMPRSS2 was assessed analogous to the neutrophil elastase measurement.
IC50 and IC90 were calculated using a non-linear regression model in GraphPad Prism 9.
The target in assay [3] is recombinant human TMPRSS2 enzyme (CusaBio #YP023924HU) (human) (UniProt O15393). Nature of the assay: cell-based or functional assay.
Chain of recombinant human TMPRSS2 enzyme (CusaBio #YP023924HU) (human) (O15393 106-492 limits assumed): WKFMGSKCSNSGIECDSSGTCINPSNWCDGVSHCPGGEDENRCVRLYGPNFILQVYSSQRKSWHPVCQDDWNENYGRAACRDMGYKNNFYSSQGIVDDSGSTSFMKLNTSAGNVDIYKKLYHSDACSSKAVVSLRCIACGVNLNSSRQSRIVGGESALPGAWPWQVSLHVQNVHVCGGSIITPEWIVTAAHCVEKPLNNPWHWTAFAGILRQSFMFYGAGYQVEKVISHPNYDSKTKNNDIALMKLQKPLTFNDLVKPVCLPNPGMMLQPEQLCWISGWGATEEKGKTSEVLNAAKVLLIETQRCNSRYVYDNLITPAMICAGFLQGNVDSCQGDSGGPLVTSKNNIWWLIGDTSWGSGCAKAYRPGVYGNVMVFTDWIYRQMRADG

Chain of recombinant human TMPRSS2 (O15393 106-492 limits assumed): as above

With `CN(C)C(=O)COC(=O)Cc1ccc(OC(=O)c2ccc(NC(=N)N)cc2)cc1` [Camostat mesylate], in assay [1] (non-linear regression), the “Neutrophil Elastase IC90” value was “-”. Besides, in assay [1] (non-linear regression, three independent experiments), the “Neutrophil Elastase IC50” value is recorded as “-”. The “inhibition of neutrophil elastase activity” value in assay [1] (result in words, Figure 27) was “did not inhibit”. Further, the IC90 in assay [2] was determined as 9.2 nM.

Regarding “recombinant human alpha-1-antitrypsin (rhAAT) glycoprotein secreted from Pichia pastoris mutS strain 1B6 (from UniProt P01009 25-418)”, the TMPRSS2 IC50 (TMPRSS2 activity assay, fluorogenic BOC-Gln-Ala-Arg-AMC substrate) in assay [3] was determined as 74.1 nM.

“Prolastin (Grifols), human plasma-derived A1AT formulation (from UniProt P01009 25-418)”: the TMPRSS2 IC50 (TMPRSS2 activity assay, fluorogenic BOC-Gln-Ala-Arg-AMC substrate) in assay [3] worked out at 79 nM.
